Data: ChEMBL document CHEMBL2203270, “POMA analyses as new efficient bioinformatics' platform to predict and optimise bioactivity of synthesized 3a,4-dihydro-3H-indeno[1,2-c]pyrazole-2-carboxamide/carbothioamide analogues” (Bioorg Med Chem Lett, 2012)
In brackets after ≈: the same amount, converted by molar mass. Activity calls are given as the source filed them. No cut-off for these calls is given here.

Key:
Aspergillus niger [1] = test: Antimicrobial activity against Aspergillus niger NCIM 1196 by agar diffusion method; type: functional
Candida albicans [2] = test: Antimicrobial activity against Candida albicans NCIM 3471 by agar diffusion method; type: functional
[3] = Cytotoxicity against mock-infected human MT4 cells assessed as decrease in cell viability by MTT assay; type: cell-based
Mus musculus [4] = test: Anticonvulsant activity in mouse assessed as protection against clonic seizure at 100 mg/kg, ip measured at 1 hr; type: functional
Mus musculus [5] = test: Anticonvulsant activity in mouse assessed as protection against clonic seizure at 100 mg/kg, ip measured at 4 hr; type: functional, organism-based; parameters: dose 100 mg/kg
Mus musculus [6] = test: Anticonvulsant activity in mouse assessed as protection against clonic seizure at 100 mg/kg, ip measured at 0.5 hr; type: functional
Mus musculus [7] = test: Neurotoxicity in mouse assessed as minimal motor impairment at 100 mg/kg, ip measured at 2 hr by rotarod test; type: toxicity, organism-based; parameters: dose 100 mg/kg, route intraperitoneal; details: in vivo
[8] = test system: Human immunodeficiency virus 2; test: Antiviral activity against HIV-2 ROD infected in MT4 cells assessed as inhibition of virus-induced cytopathicity; type: functional, organism-based; details: Human immunodeficiency virus 2, ISOLATE ROD
Mus musculus [9] = test: Neurotoxicity in mouse assessed as minimal motor impairment at 100 mg/kg, ip measured at 0.25 hr by rotarod test; type: toxicity, organism-based; parameters: dose 100 mg/kg, route intraperitoneal; details: in vivo
Mus musculus [10] = test: Neurotoxicity in mouse assessed as minimal motor impairment at 100 mg/kg, ip measured at 4 hr by rotarod test; type: toxicity, organism-based; parameters: dose 100 mg/kg, route intraperitoneal; details: in vivo
[11] = test system: Human immunodeficiency virus 1; test: Antiviral activity against HIV-1 3B infected in MT4 cells assessed as protection against virus-induced cytopathicity relative to control; type: functional; details: Human immunodeficiency virus 1, 3B
Mus musculus [12] = test: Anticonvulsant activity in mouse assessed as protection against clonic seizure at 100 mg/kg, ip measured at 0.25 hr; type: functional
Mus musculus [13] = test: Anticonvulsant activity in mouse assessed as protection against clonic seizure at 100 mg/kg, ip measured at 2 hr; type: functional, organism-based; parameters: dose 100 mg/kg
[14] = test system: Human immunodeficiency virus 2; test: Antiviral activity against HIV-2 ROD infected in MT4 cells assessed as protection against virus-induced cytopathicity relative to control; type: functional; details: Human immunodeficiency virus 2, ISOLATE ROD
Mus musculus [15] = test: Neurotoxicity in mouse assessed as minimal motor impairment at 100 mg/kg, ip measured at 1 hr by rotarod test; type: toxicity, organism-based; parameters: dose 100 mg/kg, route intraperitoneal; details: in vivo
Mus musculus [16] = test: Neurotoxicity in mouse assessed as minimal motor impairment at 100 mg/kg, ip measured at 0.5 hr by rotarod test; type: toxicity, organism-based; parameters: dose 100 mg/kg, route intraperitoneal; details: in vivo
[17] = test system: Human immunodeficiency virus 1; test: Antiviral activity against HIV-1 3B infected in MT4 cells assessed as inhibition of virus-induced cytopathicity; type: functional, organism-based; details: Human immunodeficiency virus 1, 3B
Escherichia coli [18] = test: Antimicrobial activity against Escherichia coli NCIM 5051 by broth dilution technique; type: functional
Candida albicans [19] = test: Antimicrobial activity against Candida albicans NCIM 3471 by broth dilution technique; type: functional
Staphylococcus aureus [20] = test: Antimicrobial activity against Staphylococcus aureus NCIM 2079 by broth dilution technique; type: functional
Aspergillus niger [21] = test: Antimicrobial activity against Aspergillus niger NCIM 1196 by broth dilution technique; type: functional
Pseudomonas aeruginosa [22] = test: Antimicrobial activity against Pseudomonas aeruginosa ATCC 10145 by broth dilution technique; type: functional
Bacillus subtilis [23] = test: Antimicrobial activity against Bacillus subtilis NCIM 2439 by broth dilution technique; type: functional
Pseudomonas aeruginosa [24] = test: microbe, parasite or virus in culture; details: ATCC 10145
Escherichia coli [25] = test: microbe, parasite or virus in culture; details: NCIM 5051
Description: Antimicrobial activity against Escherichia coli NCIM 5051 by disc-diffusion method

Bacillus subtilis [26] = test: Antimicrobial activity against Bacillus subtilis NCIM 2439 by disc-diffusion method; type: functional
Staphylococcus aureus [27] = test: microbe, parasite or virus in culture; details: NCIM 2079
Description: Antimicrobial activity against Staphylococcus aureus NCIM 2079 by disc-diffusion method

| Compound | CC50 [3] [µM] | IC50 [8] [µM] | Emax [11] [%] | Emax [14] [%] | IC50 [17] [µM] | MBC (Escherichia coli [18]) [µg/mL] | MIC (Escherichia coli [18]) [µg/mL] | MFC (Candida albicans [19]) [µg/mL] | MIC (Candida albicans [19]) [µg/mL] | MBC (Staphylococcus aureus [20]) [µg/mL] | MIC (Staphylococcus aureus [20]) [µg/mL] | MFC (Aspergillus niger [21]) [µg/mL] | MIC (Aspergillus niger [21]) [µg/mL] | MBC (Pseudomonas aeruginosa [22]) [µg/mL] | MIC (Pseudomonas aeruginosa [22]) [µg/mL] | MBC (Bacillus subtilis [23]) [µg/mL] | MIC (Bacillus subtilis [23]) [µg/mL] | other results |
| --- | --- | --- | --- | --- | --- | --- | --- | --- | --- | --- | --- | --- | --- | --- | --- | --- | --- | --- |
| OC(Cn1cncn1)(Cn1cncn1)c1ccc(F)cc1F [FLUCONAZOLE] | – | – | – | – | – | – | – | – | – | – | – | – | – | – | – | – | – | MFC (Aspergillus niger [1]): 2 µg/mL (≈ 6.53 µM); MIC (Aspergillus niger [1]): 2 µg/mL (≈ 6.53 µM); MFC (Candida albicans [2]): 2 µg/mL (≈ 6.53 µM); MIC (Candida albicans [2]): 1 µg/mL (≈ 3.27 µM) |
| COc1cc2c(cc1OC)C1=NN(C(=O)Nc3ccc(F)c(Cl)c3)C(c3ccc(F)cc3)C1C2 (centres undefined) | 179 | > 179 | 2 | 7 | > 179 | – | – | – | – | – | – | – | – | – | – | – | – | Activity (Mus musculus [4]): inactive; Activity (Mus musculus [5]): inactive; Activity (Mus musculus [6]): inactive; Activity (Mus musculus [7]): Non-toxic; Activity (Mus musculus [9]): Non-toxic; Activity (Mus musculus [10]): Non-toxic; Activity (Mus musculus [12]): inactive; Activity (Mus musculus [13]): inactive; Activity (Mus musculus [15]): Non-toxic; Activity (Mus musculus [16]): Non-toxic |
| COc1cc2c(cc1OC)C1=NN(C(N)=O)C(c3ccncc3)C1C2 (centres undefined) | 40.4 | > 40.4 | 4 | 5 | > 40.4 | > 512 | 8 (≈ 23.6 µM) | > 512 | 256 (≈ 757 µM) | > 512 | 16 (≈ 47.3 µM) | > 512 | 256 (≈ 757 µM) | > 512 | 16 (≈ 47.3 µM) | > 512 | 16 (≈ 47.3 µM) | – |
| O=C(O)c1cn(C2CC2)c2cc(N3CCNCC3)c(F)cc2c1=O [CIPROFLOXACIN] | – | – | – | – | – | – | – | – | – | – | – | – | – | – | – | – | – | MBC (Pseudomonas aeruginosa [24]): 8 µg/mL (≈ 24.1 µM); MIC (Pseudomonas aeruginosa [24]): 4 µg/mL (≈ 12.1 µM); MBC (Escherichia coli [25]): 4 µg/mL (≈ 12.1 µM); MBC (Bacillus subtilis [26]): 8 µg/mL (≈ 24.1 µM); MIC (Bacillus subtilis [26]): 4 µg/mL (≈ 12.1 µM); MBC (Staphylococcus aureus [27]): 8 µg/mL (≈ 24.1 µM); MIC (Staphylococcus aureus [27]): 4 µg/mL (≈ 12.1 µM) |
| COc1ccc(C2C3Cc4cc(OC)c(OC)cc4C3=NN2C(N)=S)cc1OC (centres undefined) | 158 | > 158 | 4 | 11 | > 158 | > 512 | 64 (≈ 155 µM) | 512 (≈ 1240 µM) | 16 (≈ 38.7 µM) | > 512 | 128 (≈ 310 µM) | 512 (≈ 1240 µM) | 16 (≈ 38.7 µM) | > 512 | 128 (≈ 310 µM) | > 512 | 128 (≈ 310 µM) | – |
| COc1cc2c(cc1OC)C1=NN(C(N)=S)C(c3ccccc3)C1C2 (centres undefined) | 28.4 | > 28.4 | 2 | 12 | > 28.4 | > 512 | 128 (≈ 362 µM) | > 512 | 128 (≈ 362 µM) | > 512 | 256 (≈ 724 µM) | > 512 | 128 (≈ 362 µM) | > 512 | 256 (≈ 724 µM) | > 512 | 256 (≈ 724 µM) | – |
| COc1ccc(C2C3Cc4cc(OC)c(OC)cc4C3=NN2C(N)=O)cc1 (centres undefined) | 150 | > 150 | 3 | 6 | > 150 | > 512 | 32 (≈ 87.1 µM) | 2 (≈ 5.44 µM) | 2 (≈ 5.44 µM) | > 512 | 64 (≈ 174 µM) | 8 (≈ 21.8 µM) | 4 (≈ 10.9 µM) | > 512 | 64 (≈ 174 µM) | > 512 | 128 (≈ 348 µM) | – |
| COc1ccc(C2C3Cc4cc(OC)c(OC)cc4C3=NN2C(=O)Nc2ccc(F)c(Cl)c2)cc1OC (centres undefined) | 223 | > 223 | 12 | 38 | > 223 | – | – | – | – | – | – | – | – | – | – | – | – | Activity (Mus musculus [4]; route intraperitoneal): 50%; Activity (Mus musculus [5]): inactive; Activity (Mus musculus [6]; route intraperitoneal): 50%; Activity (Mus musculus [7]): Non-toxic; Activity (Mus musculus [9]): Non-toxic; Activity (Mus musculus [10]): Non-toxic; Activity (Mus musculus [12]): inactive; Activity (Mus musculus [13]): inactive; Activity (Mus musculus [15]): Non-toxic; Activity (Mus musculus [16]): Non-toxic |
